Experimental findings from patent publication US9744186B2 (priority 2012, dated 2017) are described below.

Where only a bound is given, the exact number is not on record here.

Data set [1] relates to HCV luciferase replicon. Kind of data set: HCV luciferase replicon IC50 assay in Huh7 cells. The note with it: Hepatitis C virus. Here is the method:
Plating Cells: The Luciferase replicon cell line was passaged when it was at about 70% confluency. The cells were counted by using a hemocytometer and diluted to 1×10^5 cells per mL in DMEM+10% FBS+[…] G415. The cells were plated as follows: 100 μL of the cells (10,000 cells) per well in a white-walled 96-well plate. The cells were allowed to attach for 24 hours at 37° C.
(§1) Treating the cells: Media (DMEM+2% FBS) was pre-warmed to 37° C. […] The 96-well plate was removed from the 37° C. incubator, and the media replaced on the plate with the serial dilutions of the test drug. The plate was then returned to 37° C. for 48 h.
Luciferase Assay: The Bright-Glo reagent (Promega Corporation, Madison, Wis.) was removed from the −80° C. freezer and allowed to thaw it at 4° C. in the dark. The amount of reagent necessary for the experiment (3.65 mL) was removed, and the remaining reagent was returned to −80° C. The Glo Lysis Buffer and the Bright Glow reagent were allowed to warm to room temperature for 30 min in the dark. The 96 well plate was removed from the incubator and the cells to allowed cool to room temperature for 30 min. The media was removed from the cells, and each well was gently washed in 100 μL of phosphate buffered saline (PBS). The PBS was removed and then 50 μL of the Glo Lysis Buffer was added to each well, followed by gently rocking the plate for 15 min at room temperature in the dark to ensure complete cell lysis. To each well of the 96-well plate was added 50 μL of the Bright Glo reagent and it was mixed well with the lysate. The plate was inserted into a GloMax 96 plate reader and allowed to sit for 5 min in the dark for the luciferase reaction to reach a steady state. The luminescence on the plate was read by using the pre-installed “Bright Glo” Promega program (Synergy Software) and the data were collected and saved. The data were fit to a 4 parameter logistic curve using Kaleidagraph using the following equation: 100/(1+(x/m3)^m4).
The data in Table 1 were determined for cells exposed to drug for 48 h. The IC50 is the concentration of each compound necessary to inhibit the replication of the HCV luciferase replicon to 50%.
That is, the cells were exposed to drug for 2 h at 37° C., followed by 46 h at 37° C. or incubated in the presence of drug for 48 h at 37° C.
(In general: A replicon is a self-replicating genome or part of one, used to study replication in cells.)

The nature of data set [2]: Compound solubility in media. The note with it: DMEM+2% FBS cell culture media, 37 °C, plasma or biological fluid, kinetic from dmso stock; DMEM+2% FBS media. The format is physicochemical. The protocol: as §1
The nature of data set [3]: TC50 MTS assay with human cancer cell lines: Huh7. The format is cell-based. The conditions noted are these: human, Huh7 cells; 96 h drug treatment. Here is the method: (§2) Plating Cells: The Huh7, HEPG2, HEK293, MCF-7, PK9, RPK9, or BxPC3 cells were passaged when they were about 70% confluent. The cells were counted using a hemocytometer, and then diluted cells to 0.5×10^5 cells per mL in DMEM+10% FBS. 100 µL of the cells (5,000 cells) were plated per well in a clear 96-well plate. The cells were allowed to attach for 24 hours at 37° C.
(§3) Treating the cells: Pre-warm the DMEM media without phenol red+2% FBS media to 37° C. […] This will bring the final DMSO concentration to 0.5%. Use these 0.5 mM dilutions to further serially the drugs in DMEM without phenol red+2% FBS+0.5% DMSO. This will keep the concentration of DMSO in each condition identical. Remove the 96-well plate from the 37° C. incubator. Replace the media on the plate with the dilutions of the drugs. Stagger these treatments by 1 h and write the treatment time on each set of plates. Return to 37° C. for 48 h or 96 h as indicated.
(§4) MTS Assay: The reagents from CellTiter 96 kit (Promega Corporation, Madison, Wis.) were thawed at room temperature in the dark for 1 h. The 96-well plate was removed from the 37° C. incubator at 48 h after drug treatment. 20 μL of the combined MTS/PMS reagent to each well of the plate, mixed, and the plate returned to 37° C. The absorbance of each well at 490 nm and 650 nm was determined using the Flexstation 3 microplate reader in endpoint mode every hour for 3 h. The solutions in the wells were mixed prior to each reading. Fit Data to the Emax model: y=(Emax*x)/(TC50+x), where Emax is the maximum inhibition and TC50 is the inhibitory dose 50%. Alternatively, fit the data to the Emax sigmoidal model: y=(Emax*x^slope)/(TC50^slope+x^slope), where slope is the Hill Slope.
(§5) Each TC50 was the average value of three measurements as described herein. […] The RPK9 cells are deficient in deoxycytidine kinase (“dCK”) activity, an enzyme required for the initial phosphorylation of dFdC to dFdCMP (see FIG. 2).

The test system of the next data set is hENT1. In words: TC50 MTS assay with human cancer cell lines: Huh7. The data set is classed as cell-based. The note with it: human, Huh7 cells; 48 h drug treatment; 10 μM S-(4-nitrobenzyl)-6-thioinosine (hENT1 inhibitor) added; read-out: TC50 (μM) in Huh7 cells NBTI. The protocol: as §2, §3, §4, §5
For orientation: Formazan colour is commonly taken as a measure of viable cells.

Data set [4] is described as follows: TC50 MTS assay with human cancer cell lines: HEPG2. The format is cell-based. The note with it: HEPG2 cells, 96 h drug treatment. The protocol: as §2, §3, §4, §5
The nature of data set [5]: TC50 MTS assay with human cancer cell lines: HEK293. The format is cell-based. The note with it: HEK293 cells, 96 h drug treatment. The protocol:
as §2, §3, §4, §5

Data set [6] in a line: TC50 MTS assay with human cancer cell lines: MCF-7. The format is cell-based. The conditions noted are these: MCF-7 cells, 96 h drug treatment. The protocol:
as §2, §3, §4, §5

Data set [7] in a line: TC50 MTS assay with human cancer cell lines: BxPC3. The data set is classed as cell-based. The conditions noted are these: BxPC3 cells, 96 h drug treatment. Here is the method:
as §2, §3
(§6) MTS Assay: The reagents from CellTiter 96 kit (Promega Corporation, Madison, Wis.) were thawed at room temperature in the dark for 1 h. The 96-well plate was removed from the 37° C. incubator at 48 h after drug treatment. […] The absorbance of each well at 490 nm and 650 nm was determined using the Flexstation 3 microplate reader in endpoint mode every hour for 3 h. The solutions in the wells were mixed prior to each reading. […]

Data set [8] can be described thus: TC50 MTS assay: PK9 cells. The data set is classed as cell-based. The conditions noted are these: human, 48 h drug treatment. Here is the method:
as §2, §3, §6

A short description of data set [9]: TC50 MTS assay: RPK9 cells (deficient in deoxycytidine kinase). The format is cell-based. The conditions noted are these: human, 48 h drug treatment, dCK-deficient cells. The protocol: as §2, §3, §6
In data set [10] the test system is HCV luciferase replicon. Kind of data set: Reversal of anti-HCV activity by exogenous nucleosides. The format is cell-based, hepatitis C virus (HCV). The conditions noted are these: drug 1000, 100 or 25 nM; 50 μM cytidine or 2′-deoxycitidine; 48 h. Here is the method:
After 48 hours, the cells were lysed, and the total luciferase activity was determined. […] Where indicated, either 50 μM cytidine (C) or 50 μM 2′-deoxycitidine (dC) was also included.
The cells were plated, incubated with drug, and luciferase activity assayed essentially as described herein above. The incubation with drug was for 48 h.

The test system of data set [11] is HCV luciferase replicon. Kind of data set: Isobologram analysis of synergism with other anti-viral compounds. The format is cell-based, hepatitis C virus (HCV). Here is the method:
Isobologram analysis was carried to assess the potential synergistic interaction of representative disclosed compounds with representative antiviral compounds. The isobolgram analysis was conducted as previously described by Chou and Talalay (see Chou T. C. and Talalay P. “Analysis of combined drug effects: a new look at a very old problem.” Trends Pharmacol Sci 1983; 4:450-4; and Chou T. C. and Talalay P. “Quantitative analysis of dose-effect relationships: the combined effects of multiple drugs or enzyme inhibitors.” Adv Enzyme Regul 1984; 22:27-55). The definitions of synergism are those described by Chou (see Chou, T. C. (2006) Theoretical basis, experimental design, and computerized simulation of synergism and antagonism in drug combination studies. Pharmacol Rev. 58(3):621-81).
Data for the isobologram analysis are shown in FIGS. 12-15, and shown in each figure are the test compound concentrations and corresponding combination index.

Usually IC50 stands for the point on the concentration scale where inhibition reaches its midpoint. What is called solubility is the concentration that dissolves in the medium under given conditions. Higher therefore signals much dissolved substance. Consider `Nc1ccn([C@@H]2O[C@H](CO)[C@@H](O)C2(F)F)c(=O)n1` [gemcitabine, 4-amino-1-((2R,4R,5R)-3,3-difluoro-4-hydroxy-5-(hydroxymethyl)tetrahydrofuran-2-yl)pyrimidin-2(1H)-one, reference compound], for which the 50% inhibitory concentration (IC50) with HCV luciferase replicon [1] (Huh-7, 48 h, cells incubated with drug continuously for 48 h (Table 5)) worked out at 58.4 ± 6.1 nM; with HCV luciferase replicon [1] (Huh-7, cells incubated with drug for 2 h, followed by 46 h without drug), 170 ± 33 nM. Also, the solubility in [2] was more than 500 µM. Also, the CC50 at 96 h in data set [3] worked out at 3410 ± 1360 nM; in data set [4] it was 311 ± 55 nM; in data set [5] it was 560 ± 130 nM; in [6], 67 ± 14 nM; in data set [7], 2.9 ± 0.3 nM. Also, the CC50 at 48 h with hENT1 is more than 500 µM; in [8], 0.095 ± 0.035 µM; in data set [9], more than 500 µM. Besides, in the data set on HCV luciferase replicon [10], the “reversal of the inhibition of the HCV luciferase replicon by deoxycytidine and cytidine” value is reported as “reversal”. In the data set on HCV luciferase replicon [11] (Compound 2 = PSI-6130), the “Interaction Type with PSI-6130” value was “synergism”. Besides, in the data set on HCV luciferase replicon [11] (Compound 2 = PSI-7977), the “Interaction Type with PSI-7977” value is “slight synergism”.
